Measurements from article PMC12155096 (International Journal of Molecular Sciences, 2025).
Read-outs that look alike come from different tables or passages of the source.

Experiments:
Assay in all cases: biochemical; call rule not given here
[1] = biological target: Photinus pyralis (firefly) luciferase (Photinus pyralis, UniProt P08659); type: biochemical
human CYP1A2 = biological target: T1, human CYP1A2 (Homo sapiens, UniProt P05177)
T1 sequence (P05177 1-516): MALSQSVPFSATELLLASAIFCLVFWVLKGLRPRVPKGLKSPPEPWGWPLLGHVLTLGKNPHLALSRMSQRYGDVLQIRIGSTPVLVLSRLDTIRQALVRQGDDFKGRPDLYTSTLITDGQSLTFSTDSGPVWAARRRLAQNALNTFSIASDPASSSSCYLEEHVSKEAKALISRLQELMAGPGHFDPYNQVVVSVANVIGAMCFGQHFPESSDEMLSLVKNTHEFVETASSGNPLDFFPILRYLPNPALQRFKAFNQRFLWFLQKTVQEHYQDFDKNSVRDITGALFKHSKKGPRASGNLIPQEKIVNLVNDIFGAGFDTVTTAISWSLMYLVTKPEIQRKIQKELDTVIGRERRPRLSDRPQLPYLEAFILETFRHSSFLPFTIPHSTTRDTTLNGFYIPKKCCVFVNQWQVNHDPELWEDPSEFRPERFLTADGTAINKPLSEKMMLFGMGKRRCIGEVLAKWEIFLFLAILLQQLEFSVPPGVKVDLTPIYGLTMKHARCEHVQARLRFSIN

human CYP2C9 = human CYP2C9 (Homo sapiens, UniProt P11712)
Sequence of human CYP2C9 (P11712 whole entry): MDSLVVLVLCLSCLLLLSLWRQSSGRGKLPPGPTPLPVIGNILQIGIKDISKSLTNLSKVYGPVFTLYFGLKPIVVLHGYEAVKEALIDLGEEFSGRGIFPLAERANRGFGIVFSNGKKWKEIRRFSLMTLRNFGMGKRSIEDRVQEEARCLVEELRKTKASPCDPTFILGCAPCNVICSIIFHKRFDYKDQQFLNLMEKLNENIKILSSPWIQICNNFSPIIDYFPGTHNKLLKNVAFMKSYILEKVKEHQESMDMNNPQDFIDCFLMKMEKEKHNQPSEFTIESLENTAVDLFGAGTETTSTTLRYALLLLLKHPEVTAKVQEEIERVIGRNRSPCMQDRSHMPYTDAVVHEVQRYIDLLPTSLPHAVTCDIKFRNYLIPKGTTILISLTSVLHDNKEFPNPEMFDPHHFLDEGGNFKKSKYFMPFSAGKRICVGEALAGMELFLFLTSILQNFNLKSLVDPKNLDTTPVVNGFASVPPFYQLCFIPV

human CYP2C19 = human CYP2C19 (Homo sapiens, UniProt P33261)
Sequence of human CYP2C19 (P33261 whole entry): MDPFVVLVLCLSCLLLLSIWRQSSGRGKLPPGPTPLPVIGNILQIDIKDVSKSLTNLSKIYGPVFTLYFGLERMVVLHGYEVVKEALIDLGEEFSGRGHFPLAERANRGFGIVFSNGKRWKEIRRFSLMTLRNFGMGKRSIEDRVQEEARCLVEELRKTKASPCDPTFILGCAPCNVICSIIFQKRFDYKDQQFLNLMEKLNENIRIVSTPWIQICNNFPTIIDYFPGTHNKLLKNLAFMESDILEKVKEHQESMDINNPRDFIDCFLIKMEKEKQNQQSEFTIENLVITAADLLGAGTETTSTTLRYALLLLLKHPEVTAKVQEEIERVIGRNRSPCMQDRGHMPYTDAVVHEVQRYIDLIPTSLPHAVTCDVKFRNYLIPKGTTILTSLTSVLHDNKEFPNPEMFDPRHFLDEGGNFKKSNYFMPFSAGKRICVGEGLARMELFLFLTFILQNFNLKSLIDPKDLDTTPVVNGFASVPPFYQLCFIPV

human CYP2D6 = human CYP2D6 (Homo sapiens, UniProt P10635)
Sequence of human CYP2D6 (P10635 whole entry): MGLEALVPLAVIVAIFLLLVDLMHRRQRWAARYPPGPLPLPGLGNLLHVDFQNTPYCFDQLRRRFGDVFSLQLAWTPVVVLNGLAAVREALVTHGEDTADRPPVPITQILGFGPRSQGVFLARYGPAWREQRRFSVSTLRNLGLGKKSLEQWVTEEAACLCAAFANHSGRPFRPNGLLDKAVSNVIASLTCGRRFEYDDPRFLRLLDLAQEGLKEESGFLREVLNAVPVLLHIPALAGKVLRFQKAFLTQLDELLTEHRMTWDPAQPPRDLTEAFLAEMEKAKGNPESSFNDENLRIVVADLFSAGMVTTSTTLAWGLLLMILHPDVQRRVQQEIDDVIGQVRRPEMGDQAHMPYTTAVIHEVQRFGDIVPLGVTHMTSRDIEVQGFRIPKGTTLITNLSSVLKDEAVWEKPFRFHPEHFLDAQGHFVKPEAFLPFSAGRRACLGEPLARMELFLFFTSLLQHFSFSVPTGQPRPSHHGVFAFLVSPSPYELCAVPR

CYP3A4 = CYP3A4 (Homo sapiens, UniProt P08684)
Sequence of CYP3A4 (P08684 whole entry): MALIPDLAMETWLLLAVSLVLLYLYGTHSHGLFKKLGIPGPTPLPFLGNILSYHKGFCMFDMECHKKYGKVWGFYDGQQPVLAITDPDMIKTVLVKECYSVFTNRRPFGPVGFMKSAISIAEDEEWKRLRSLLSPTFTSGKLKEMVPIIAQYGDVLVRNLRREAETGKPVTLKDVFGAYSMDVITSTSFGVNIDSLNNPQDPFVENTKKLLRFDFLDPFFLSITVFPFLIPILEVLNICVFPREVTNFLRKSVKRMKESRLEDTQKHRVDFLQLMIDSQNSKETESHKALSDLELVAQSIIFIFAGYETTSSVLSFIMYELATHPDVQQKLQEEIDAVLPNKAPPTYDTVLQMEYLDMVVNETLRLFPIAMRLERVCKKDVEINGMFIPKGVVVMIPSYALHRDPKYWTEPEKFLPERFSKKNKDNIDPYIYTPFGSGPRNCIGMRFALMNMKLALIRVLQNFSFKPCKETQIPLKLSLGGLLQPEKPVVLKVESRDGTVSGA

[2] = CYP1A2 IC50 (half-maximal inhibitory concentration)
[3] = CYP2C19 IC50 (half-maximal inhibitory concentration)
[4] = CYP3A4 IC50 (half-maximal inhibitory concentration)
[5] = CYP2C9 IC50 (half-maximal inhibitory concentration)
[6] = CYP2D6 IC50 (half-maximal inhibitory concentration)

Sequence of Photinus pyralis (firefly) luciferase (P08659 whole entry): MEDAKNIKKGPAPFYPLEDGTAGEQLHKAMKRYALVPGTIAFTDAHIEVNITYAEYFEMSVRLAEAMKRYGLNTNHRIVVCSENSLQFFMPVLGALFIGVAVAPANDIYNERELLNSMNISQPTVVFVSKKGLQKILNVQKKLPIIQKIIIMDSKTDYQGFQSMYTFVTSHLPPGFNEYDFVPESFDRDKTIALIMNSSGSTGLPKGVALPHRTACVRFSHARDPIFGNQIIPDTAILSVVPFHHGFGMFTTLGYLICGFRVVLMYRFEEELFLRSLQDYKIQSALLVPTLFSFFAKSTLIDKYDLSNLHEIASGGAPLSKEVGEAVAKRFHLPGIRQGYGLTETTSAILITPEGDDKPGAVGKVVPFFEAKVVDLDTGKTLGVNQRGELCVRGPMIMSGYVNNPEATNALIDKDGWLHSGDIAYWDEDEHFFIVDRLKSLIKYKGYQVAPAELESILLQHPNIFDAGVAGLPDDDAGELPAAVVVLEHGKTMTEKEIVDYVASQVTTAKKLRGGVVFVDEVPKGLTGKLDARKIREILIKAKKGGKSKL

SMILES	Luciferase IC50 (half-maximal inhibitory concentration) [1]	IC50 (human CYP1A2; [2]) [µM]	IC50 (human CYP2C9) [µM]	IC50 (human CYP2C19; [3]) [nM]	IC50 (human CYP2D6) [µM]	IC50 (CYP3A4; [4]) [nM]	IC50 [1] [µM]	IC50 (human CYP2C9; [5]) [µM]	IC50 (human CYP2D6; [6]) [µM]	IC50 (human CYP1A2; CYP1A2 IC50) [µM]	IC50 (human CYP2C19; CYP2C19 IC50) [nM]	IC50 (CYP3A4; CYP3A4 IC50) [nM]	also measured
CCOP(=S)(OCC)SC(CCl)N1C(=O)c2ccccc2C1=O (centres unmarked) [Dialifor]	Inactive	68.4	1.13	380	38.5	1650	–	–	–	–	–	–	–
O=[N+]([O-])c1cc(C(F)(F)F)c(Cl)c([N+](=O)[O-])c1Nc1ncc(C(F)(F)F)cc1Cl [Fluazinam]	–	35.6	–	14800	–	18700	89.4	0.73	46.2	–	–	–	–
Nc1ccc2c(c1)C(=O)c1ccccc1C2=O [2-Aminoanthraquinone]	–	0.2	–	14000	–	1640	2.67	22.5	41.4	–	–	–	–
O=S(=O)(Oc1ccc(Cl)cc1Cl)c1ccccc1 [2,4-Dichlorophenyl benzenesulfonate]	–	1.58	–	490	–	2120	54.6	39.2	64.4	–	–	–	AC50 (human CYP1A2; CYP1A2 AC50 (half-maximal activity concentration)): 2240 nM; AC50 (human CYP2C9; CYP2C9 AC50 (half-maximal activity concentration)): 35.7 µM; AC50 (human CYP2C19; CYP2C19 AC50 (half-maximal activity concentration)): 770 nM; IC50 (human CYP2C19; IC50 CYP2C19 assay): 420 nM; AC50 (human CYP2D6; CYP2D6 AC50 (half-maximal activity concentration)): 51.1 µM; AC50 (CYP3A4; CYP3A4 AC50 (half-maximal activity concentration)): 3.27 µM
Cc1cc(-c2ccc(N)c(C)c2)ccc1N [3,3'-Dimethylbenzidine]	–	–	23.4	–	3.41	–	76.3	–	–	0.47	6240	10600	IC50 (human CYP1A2; IC50 CYP1A2 assay): 0.64 µM
Cc1cc(C)c(N)cc1C [2,4,5-Trimethylaniline]	–	–	–	–	–	–	15.8	–	–	0.87	9810	35500	IC50 (human CYP1A2; IC50 CYP1A2 assay): 0.79 µM; IC50 (human CYP2C9; CYP2C9 IC50): 32.9 µM; IC50 (human CYP2D6; CYP2D6 IC50): 38.1 µM
COC(=O)c1c(C(F)F)nc(C(F)(F)F)c(C2=NCCS2)c1CC(C)C [Thiazopyr]	Inactive	0.4	–	5430	–	1930	–	34.3	54.3	–	–	–	–
COP(=S)(OC)Oc1ccc([N+](=O)[O-])c(C)c1 [Fenitrothion]	–	1.04	–	550	–	8480	67	6.12	35	–	–	–	–
CC(C)(C)[C@@H](O)[C@@H](Cc1ccc(Cl)cc1)n1cncn1 (racemic) [Paclobutrazol]	Inactive	74.8	–	330	–	140	–	12.1	36.8	–	–	–	–
O=S1OCC2C(CO1)C1(Cl)C(Cl)=C(Cl)C2(Cl)C1(Cl)Cl (centres unmarked) [Endosulfan]	–	–	–	–	–	–	–	–	–	35.8	3190	390	Luciferase IC50 [1]: Inactive; IC50 (human CYP2C9; CYP2C9 IC50): 37.2 µM; IC50 (human CYP2D6; CYP2D6 IC50): 18 µM
CCOC(=O)N(C)C(=O)CSP(=S)(OCC)OCC [Mecarbam]	–	–	–	–	–	–	–	–	–	2.91	90	2600	Luciferase IC50 [1]: Inactive; IC50 (human CYP2C9; CYP2C9 IC50): 0.7 µM; IC50 (human CYP2D6; CYP2D6 IC50): 27.5 µM
OC(c1ccc(Cl)cc1)(c1cncnc1)c1ccccc1Cl (centres unmarked) [Fenarimol]	Inactive	71.4	–	240	–	170	–	6.1	35.6	–	–	–	–
CCOc1cc(C(C)(C)C)ccc1C1COC(c2c(F)cccc2F)=N1 (centres unmarked) [Etoxazole]	Inactive	19.6	–	3430	–	110	–	9.94	10.5	–	–	–	–
CCOP(=S)(OCC)Oc1cc(-c2ccccc2)on1 [Isoxathion]	–	–	0.75	–	35.6	–	33	–	–	3.92	2550	2110	–
CCOP(=S)(NC(C)C)Oc1ccccc1C(=O)OC(C)C (centres unmarked) [Isofenphos]	Inactive	9.71	1.44	190	60.6	680	–	–	–	–	–	–	–
CCOP(=S)(OCC)SCCS(=O)(=O)CC [Disulfoton sulfone]	Inactive	26	1.64	300	13.4	2610	–	–	–	–	–	–	–
